From patent US11001613B2, “TFPI inhibitors and methods of use” (priority 2008, dated 2021)
One block for each compound: values may come before it. Residues, ends and D or L forms follow the SMILES beside them.

Columns and labels:
[1] = test system: TFPI-dependent thrombin generation in FVIII deficient plasma; assay: thrombin generation (calibrated automated thrombography) in FVIII deficient plasma; settings: plasma-based assay, FIGS. 11A and 11B
[2] = target: T1, TFPI-1 (Homo sapiens, UniProt P10646); assay: FXa inhibition assay; type: biochemical; settings: OD readings after 115 minutes
T1 sequence (P10646 29-304): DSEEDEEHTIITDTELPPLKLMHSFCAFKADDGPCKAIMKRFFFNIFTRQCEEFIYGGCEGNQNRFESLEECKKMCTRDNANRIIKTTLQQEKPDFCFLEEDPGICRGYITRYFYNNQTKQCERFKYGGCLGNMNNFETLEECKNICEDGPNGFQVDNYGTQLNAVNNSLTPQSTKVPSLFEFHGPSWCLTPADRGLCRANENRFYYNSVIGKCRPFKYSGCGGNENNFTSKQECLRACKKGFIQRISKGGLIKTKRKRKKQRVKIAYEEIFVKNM

[3] = in vivo, iv, 10 mg/kg

SMILES: CSCC[C@@H]1NC(=O)CNC(=O)[C@@H](NC(=O)[C@H](Cc2ccccc2)NC(=O)[C@H](Cc2c[nH]c3ccccc23)NC(=O)[C@H](CCCCN)NC(=O)[C@H](Cc2ccc(O)cc2)NC(=O)[C@H](CCCNC(=N)N)NC(=O)[C@H](CO)NC(=O)[C@H](C)NC(=O)CNC(=O)[C@H](CO)NC(C)=O)CSSC[C@@H](C(=O)N[C@H](C(=O)N[C@@H](Cc2c[nH]c3ccccc23)C(=O)N[C@H](C(=O)N[C@@H](CCCCN)C(=O)N[C@@H](Cc2ccccc2)C(=O)N[C@@H](CCCNC(=N)N)C(=O)N[C@@H](Cc2ccc(O)cc2)C(=O)N[C@@H](CC(=O)O)C(=O)N[C@H](C(=O)N[C@@H](CO)C(N)=O)[C@@H](C)O)C(C)C)C(C)C)NC(=O)[C@H](CO)NC(=O)[C@H](CCSC)NC(=O)[C@H]([C@@H](C)O)NC(=O)CNC(=O)[C@H](CCCCN)NC(=O)[C@H](CCSC)NC(=O)[C@H](CC(=O)O)NC(=O)[C@H](CCCNC(=N)N)NC1=O [JBT0120]
- peak thrombin and peak time [1]: improved peak thrombin and peak time, dose dependently

- EC50 [2]: 600 nM
SMILES: CC(=O)N[C@@H](Cc1ccccc1)C(=O)N[C@@H](CCC(N)=O)C(=O)N[C@@H](CO)C(=O)N[C@@H](CCCCN)C(=O)N[C@@H](CC(N)=O)C(=O)N[C@@H](CC(N)=O)C(=O)N[C@H](C(=O)N[C@@H](Cc1ccccc1)C(=O)N[C@H](C(=O)N[C@@H](Cc1ccccc1)C(=O)NCC(=O)N[C@@H](Cc1ccc(O)cc1)C(=O)N[C@@H](Cc1ccccc1)C(=O)N[C@@H](CCC(=O)O)C(=O)N[C@@H](CCCNC(=N)N)C(=O)N[C@@H](CC(C)C)C(=O)N[C@@H](CCCNC(=N)N)C(=O)N[C@@H](C)C(=O)N[C@@H](CCCCN)C(=O)N[C@@H](CC(C)C)C(N)=O)C(C)C)C(C)C [JBT0297] (Ac-FQSKNNVFVFGYFERLRAKL-NH2)

- concentration of peptide in mouse plasma over time [3]: rapidly cleared from the plasma
SMILES: CC(=O)N[C@@H](Cc1ccccc1)C(=O)N[C@@H](CCC(N)=O)C(=O)N[C@@H](CO)C(=O)N[C@@H](CCCCN)C(=O)NCC(=O)N[C@@H](CC(N)=O)C(=O)N[C@H](C(=O)N[C@@H](Cc1ccccc1)C(=O)N[C@H](C(=O)N[C@@H](CC(=O)O)C(=O)NCC(=O)N[C@@H](Cc1ccc(O)cc1)C(=O)N[C@@H](Cc1ccccc1)C(=O)N[C@@H](CCC(=O)O)C(=O)N[C@@H](CCCNC(=N)N)C(=O)N[C@@H](CC(C)C)C(=O)NC(C)(C)C(=O)N[C@@H](C)C(=O)N[C@@H](CCCCN)C(=O)N[C@@H](CC(C)C)C(N)=O)C(C)C)C(C)C [JBT0740]
